Assay results as given in ChEMBL document CHEMBL4152332, “Discovery and synthesis of novel magnolol derivatives with potent anticancer activity in non-small cell lung cancer” (Eur J Med Chem, 2018).
≈ marks a conversion by molar mass, not a printed value.

What was measured:
[1] = system: Mus musculus; assay: Toxicity in Balb/c mouse implanted with mouse C26 cells assessed as change in body weight at 100 mg/kg, po qd treated for 10 days and measured every 2 days (RVB = 16.4%); format: organism-based; settings: in vivo
[2] = system: HCC827; assay: Antiproliferative activity against human HCC827 cells after 72 hrs by MTT assay; format: functional, cell-based; settings: HCC827, 72 h
[3] = system: NCI-H1975; assay: Antiproliferative activity against human NCI-H1975 cells after 72 hrs by MTT assay; format: functional, cell-based; settings: NCI-H1975, 72 h
[4] = system: NCI-H460; assay: Antiproliferative activity against human H460 cells after 72 hrs by MTT assay; format: functional, cell-based; settings: NCI-H460, 72 h
[5] = system: A549; assay: Antiproliferative activity against human A549 cells after 72 hrs by MTT assay; format: functional, cell-based; settings: A549, 72 h
[6] = Antiproliferative activity against human SPC-A1 cells after 72 hrs by MTT assay; format: functional, cell-based; settings: SPCA1, 72 h
[7] = system: NCI-H1650; assay: Antiproliferative activity against human NCI-H1650 cells after 72 hrs by MTT assay; format: functional, cell-based; settings: NCI-H1650, 72 h
[8] = system: PC-9; assay: Antiproliferative activity against human PC9 cells after 72 hrs by MTT assay; format: functional, cell-based; settings: PC-9, 72 h
[9] = system: NCI-H441; assay: Antiproliferative activity against human H441 cells after 72 hrs by MTT assay; format: functional, cell-based; settings: NCI-H441, 72 h
[10] = system: NCI-H358; assay: Antiproliferative activity against human NCI-H358 cells after 72 hrs by MTT assay; format: functional, cell-based; settings: NCI-H358, 72 h
[11] = Apparent aqueous solubility of the compound by HPLC analysis; format: physicochemical; settings: aqueous solution
[12] = system: NCI-H1975; assay: Cell cycle arrest in human NCI-H1975 cells assessed as increase in accumulation at G0/G1 phase after 24 hrs by propidium iodide staining-based flow cytometric analysis; format: functional
[13] = system: NCI-H1975; assay: Cell cycle arrest in human NCI-H1975 cells assessed as reduction in accumulation at S phase after 24 hrs by propidium iodide staining-based flow cytometric analysis; format: functional
[14] = system: NCI-H1975; assay: Cell cycle arrest in human NCI-H1975 cells assessed as reduction in accumulation at G2/M phase after 24 hrs by propidium iodide staining-based flow cytometric analysis; format: functional
[15] = system: NCI-H1975; assay: Cell cycle arrest in human NCI-H1975 cells assessed as accumulation at G0/G1 phase at 5 uM after 24 hrs by propidium iodide staining-based flow cytometric analysis (reference value: 56.11%); format: functional
[16] = system: NCI-H1975; assay: Cell cycle arrest in human NCI-H1975 cells assessed as accumulation at S phase at 5 uM after 24 hrs by propidium iodide staining-based flow cytometric analysis (reference value: 22.93%); format: functional
[17] = system: NCI-H1975; assay: Cell cycle arrest in human NCI-H1975 cells assessed as accumulation at G2/M phase at 5 uM after 24 hrs by propidium iodide staining-based flow cytometric analysis (reference value: 20.11%); format: functional
[18] = system: NCI-H1975; assay: Cell cycle arrest in human NCI-H1975 cells assessed as accumulation at G0/G1 phase at 10 uM after 24 hrs by propidium iodide staining-based flow cytometric analysis (reference value: 56.11%); format: functional
[19] = system: NCI-H1975; assay: Cell cycle arrest in human NCI-H1975 cells assessed as accumulation at S phase at 10 uM after 24 hrs by propidium iodide staining-based flow cytometric analysis (reference value: 22.93%); format: functional
[20] = system: NCI-H1975; assay: Cell cycle arrest in human NCI-H1975 cells assessed as accumulation at G2/M phase at 10 uM after 24 hrs by propidium iodide staining-based flow cytometric analysis (reference value: 20.11%); format: functional
[21] = system: NCI-H1975; assay: Cell cycle arrest in human NCI-H1975 cells assessed as accumulation at G0/G1 phase at 20 uM after 24 hrs by propidium iodide staining-based flow cytometric analysis (reference value: 56.11%); format: functional
[22] = system: NCI-H1975; assay: Cell cycle arrest in human NCI-H1975 cells assessed as accumulation at S phase at 20 uM after 24 hrs by propidium iodide staining-based flow cytometric analysis (reference value: 22.93%); format: functional
[23] = system: NCI-H1975; assay: Cell cycle arrest in human NCI-H1975 cells assessed as accumulation at G2/M phase at 20 uM after 24 hrs by propidium iodide staining-based flow cytometric analysis (reference value: 20.11%); format: functional
[24] = system: NCI-H1975; assay: Induction of apoptosis in human NCI-H1975 cells after 48 hrs by annexin V/FITC-propidium iodide staining-based flow cytometric method; format: functional, cell-based
[25] = system: NCI-H1975; assay: Induction of apoptosis in human NCI-H1975 cells assessed as early apoptotic cells at 5 uM after 48 hrs by annexin V/FITC-propidium iodide staining-based flow cytometric method ( Rvb = 6.09%); format: functional
[26] = system: NCI-H1975; assay: Induction of apoptosis in human NCI-H1975 cells assessed as late apoptotic cells at 5 uM after 48 hrs by annexin V/FITC-propidium iodide staining-based flow cytometric method ( Rvb = 10.4%); format: functional
[27] = system: NCI-H1975; assay: Induction of apoptosis in human NCI-H1975 cells assessed as necrotic cells at 5 uM after 48 hrs by annexin V/FITC-propidium iodide staining-based flow cytometric method ( Rvb = 1.01%); format: functional
[28] = system: NCI-H1975; assay: Induction of apoptosis in human NCI-H1975 cells assessed as viable cells at 5 uM after 48 hrs by annexin V/FITC-propidium iodide staining-based flow cytometric method ( Rvb = 82.5%); format: functional; settings: NCI-H1975, 48 h, read-out: Activity
[29] = system: NCI-H1975; assay: Induction of apoptosis in human NCI-H1975 cells assessed as early apoptotic cells at 10 uM after 48 hrs by annexin V/FITC-propidium iodide staining-based flow cytometric method ( Rvb = 6.09%); format: functional
[30] = system: NCI-H1975; assay: Induction of apoptosis in human NCI-H1975 cells assessed as late apoptotic cells at 10 uM after 48 hrs by annexin V/FITC-propidium iodide staining-based flow cytometric method ( Rvb = 10.4%); format: functional
[31] = system: NCI-H1975; assay: Induction of apoptosis in human NCI-H1975 cells assessed as necrotic cells at 10 uM after 48 hrs by annexin V/FITC-propidium iodide staining-based flow cytometric method ( Rvb = 1.01%); format: functional
[32] = system: NCI-H1975; assay: Induction of apoptosis in human NCI-H1975 cells assessed as viable cells at 10 uM after 48 hrs by annexin V/FITC-propidium iodide staining-based flow cytometric method ( Rvb = 82.5%); format: functional; settings: NCI-H1975, 48 h, read-out: Activity
[33] = system: NCI-H1975; assay: Induction of apoptosis in human NCI-H1975 cells assessed as early apoptotic cells at 20 uM after 48 hrs by annexin V/FITC-propidium iodide staining-based flow cytometric method ( Rvb = 6.09%); format: functional
[34] = system: NCI-H1975; assay: Induction of apoptosis in human NCI-H1975 cells assessed as late apoptotic cells at 20 uM after 48 hrs by annexin V/FITC-propidium iodide staining-based flow cytometric method ( Rvb = 10.4%); format: functional
[35] = system: NCI-H1975; assay: Induction of apoptosis in human NCI-H1975 cells assessed as necrotic cells at 20 uM after 48 hrs by annexin V/FITC-propidium iodide staining-based flow cytometric method ( Rvb = 1.01%); format: functional
[36] = system: NCI-H1975; assay: Induction of apoptosis in human NCI-H1975 cells assessed as viable cells at 20 uM after 48 hrs by annexin V/FITC-propidium iodide staining-based flow cytometric method ( Rvb = 82.5%); format: functional; settings: NCI-H1975, 48 h, read-out: Activity
[37] = system: HUVEC; assay: Antimigratory activity against HUVEC after 24 to 48 hrs by phase contrast/fluorescence microscopic analysis; format: functional, cell-based; settings: Homo sapiens
[38] = Antitumor activity against mouse C26 cells implanted in Balb/c mouse assessed as tumor growth inhibition at 100 mg/kg, po qd and measured every 2 days relative to control; format: functional; settings: 48 h, read-out: TGI
[39] = system: Mus musculus; assay: Toxicity in Balb/c mouse implanted with mouse C26 cells assessed as mouse death at 100 mg/kg, po qd treated for 10 days; format: organism-based; settings: in vivo, 240 h
[40] = system: HCC827; assay: Potency index, ratio of IC50 for honokiol to IC50 for test compound for antiproliferative activity against human HCC827 cells after 72 hrs by MTT assay; format: functional
[41] = system: NCI-H1975; assay: Potency index, ratio of IC50 for honokiol to IC50 for test compound for antiproliferative activity against human NCI-H1975 cells after 72 hrs by MTT assay; format: functional
[42] = system: NCI-H460; assay: Potency index, ratio of IC50 for honokiol to IC50 for test compound for antiproliferative activity against human H460 cells after 72 hrs by MTT assay; format: functional
[43] = system: HCC827; assay: Potency index, ratio of IC50 for magnolol to IC50 for test compound for antiproliferative activity against human HCC827 cells after 72 hrs by MTT assay; format: functional
[44] = system: NCI-H1975; assay: Potency index, ratio of IC50 for magnolol to IC50 for test compound for antiproliferative activity against human NCI-H1975 cells after 72 hrs by MTT assay; format: functional
[45] = system: NCI-H460; assay: Potency index, ratio of IC50 for magnolol to IC50 for test compound for antiproliferative activity against human H460 cells after 72 hrs by MTT assay; format: functional
[46] = system: Mus musculus; assay: Toxicity in Balb/c mouse implanted with mouse C26 cells assessed as reduction in body weight at 100 mg/kg, po qd treated for 10 days and measured every 2 days; format: organism-based; settings: in vivo

## C=CCc1ccc(O)c(-c2cc(CC=C)cc(CN3CCN(CCOC)CC3)c2O)c1
[1]
  Activity: 12.4%
[2]
  IC50: 6.8 µM
[3]
  IC50: 7.12 µM
[4]
  IC50: 5.92 µM
[5]
  IC50: 7.89 µM
[6]
  IC50: 7.27 µM
[7]
  IC50: 5.12 µM
[8]
  IC50: 13.5 µM
[9]
  IC50: 10.2 µM
[10]
  IC50: 7.49 µM
[11]
  solubility: 120 µg/mL (≈ 0.284 mM)
[12]
  Activity: Dose-dependent effect
[13]
  Activity: Dose-dependent effect
[14]
  Activity: Dose-dependent effect
[15]
  Activity: 61.59%
[16]
  Activity: 17.71%
[17]
  Activity: 18.05%
[18]
  Activity: 66.25%
[19]
  Activity: 21.85%
[20]
  Activity: 11.15%
[21]
  Activity: 69.91%
[22]
  Activity: 11.17%
[23]
  Activity: 16.86%
[24]
  Activity: Dose-dependent effect
[25]
  Activity: 6.13%
[26]
  Activity: 22.8%
[27]
  Activity: 0.47%
[28]
  viability at 5 µM: 72.6%
[29]
  Activity: 8.79%
[30]
  Activity: 22.5%
[31]
  Activity: 0.31%
[32]
  viability at 10 µM: 68.4%
[33]
  Activity: 25.1%
[34]
  Activity: 51.1%
[35]
  Activity: 0.9%
[36]
  viability at 20 µM: 22.9%
[37]
  Activity: Dose-dependent effect
[38]
  inhibition in vivo at 100 mg/kg: 4.14%
[39]
  Activity: Non-Toxic
[40]
  Ratio IC50: 4
[41]
  Ratio IC50: 4
[42]
  Ratio IC50: 4
[43]
  Ratio IC50: 8
[44]
  Ratio IC50: 8
[45]
  Ratio IC50: 8

## C=CCc1ccc(O)c(-c2cc(CC=C)cc(CN3CCCC(N)C3)c2O)c1 (stereo not drawn)
[2]
  IC50: 4.87 µM
[3]
  IC50: 4.82 µM
[4]
  IC50: 5.71 µM
[5]
  IC50: 7.46 µM
[6]
  IC50: 8.43 µM
[7]
  IC50: 6.93 µM
[8]
  IC50: 11.4 µM
[9]
  IC50: 7.48 µM
[10]
  IC50: 9.51 µM
[11]
  solubility: 4080 µg/mL (≈ 10.8 mM)
[12]
  Activity: Dose-dependent effect
[13]
  Activity: Dose-dependent effect
[14]
  Activity: Dose-dependent effect
[15]
  Activity: 65.67%
[16]
  Activity: 16.29%
[17]
  Activity: 16.05%
[18]
  Activity: 70.32%
[19]
  Activity: 9.26%
[20]
  Activity: 18.21%
[21]
  Activity: 79.88%
[22]
  Activity: 4.75%
[23]
  Activity: 13.83%
[24]
  Activity: Dose-dependent effect
[25]
  Activity: 7.56%
[26]
  Activity: 22.5%
[27]
  Activity: 0.74%
[28]
  viability at 5 µM: 69.2%
[29]
  Activity: 6.45%
[30]
  Activity: 28.3%
[31]
  Activity: 0.65%
[32]
  viability at 10 µM: 64.6%
[33]
  Activity: 40.6%
[34]
  Activity: 57%
[35]
  Activity: 0.38%
[36]
  viability at 20 µM: 2.02%
[37]
  Activity: Dose-dependent effect
[46]
  Activity: Toxic
[40]
  Ratio IC50: 4
[41]
  Ratio IC50: 4
[42]
  Ratio IC50: 4
[43]
  Ratio IC50: 8
[44]
  Ratio IC50: 8
[45]
  Ratio IC50: 8
